Laboratory results taken from PubChem BioAssay (NCI).
“And” between values parts separate entries of the source, which are not always exact repeats. Equal entries are not always repeated.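 Assay format: 96-well plates, 48-hour exposure. GI50: concentration for 50% inhibition of growth. At the TGI there is no net growth.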

Columns and labels:
Experiment in all cases: inhibition of tumour cell growth, NCI panel, 48 h
PC-3 prostate = tested on: PC-3 prostate
UO-31 renal = tested on: UO-31 renal
HOP-62 NSCLC = tested on: HOP-62 NSCLC
SK-OV-3 ovarian = tested on: SK-OV-3 ovarian
MDA-MB-231 breast = tested on: MDA-MB-231 breast
M14 melanoma = tested on: M14 melanoma
HCT-116 colon = tested on: HCT-116 colon
RPMI-8226 leukemia = tested on: RPMI-8226 leukemia
U251 CNS = tested on: U251 CNS
NCI/ADR-RES ovarian = tested on: NCI/ADR-RES ovarian

Row | SMILES | GI50 (PC-3 prostate) | TGI (PC-3 prostate) | GI50 (UO-31 renal) | TGI (UO-31 renal) | GI50 (HOP-62 NSCLC) | TGI (HOP-62 NSCLC) | GI50 (SK-OV-3 ovarian) | TGI (SK-OV-3 ovarian) | GI50 (MDA-MB-231 breast) | TGI (MDA-MB-231 breast) | GI50 (M14 melanoma) | TGI (M14 melanoma) | GI50 (HCT-116 colon) | TGI (HCT-116 colon) | GI50 (RPMI-8226 leukemia) | TGI (RPMI-8226 leukemia) | GI50 (U251 CNS) | TGI (U251 CNS) | GI50 (NCI/ADR-RES ovarian) | TGI (NCI/ADR-RES ovarian)
1 | CCC(=O)Nc1ccccc1C#C/C=C\C#Cc1ccccc1C(F)(F)F | 4.08 µM | > 50 µM | 2.59 µM | > 50 µM | 2.42 µM | > 50 µM | 1.7 µM | > 50 µM | 3.13 µM | > 29.3 µM | 2.09 µM | 23.2 µM | 2.81 µM | 25.8 µM | 4.25 µM | > 50 µM | 2.42 µM | > 40.7 µM | 1.48 µM | 9.95 µM
2 | O=C1C(=O)c2ccccc2C(O)=C1CCCc1ccc(C2CCCCCC2)cc1 | 0.542 µM | > 42.4 µM | 0.612 µM | 8.94 µM | 1.27 µM | 27.3 µM | 2.85 µM | 54.6 µM | 5.76 µM | 42.2 µM | 1.86 µM | 21 µM | 0.426 µM | 13.3 µM | 0.463 µM | 13.9 µM | 0.687 µM | 25.3 µM | 0.702 µM | 11.9 µM
3 | Cc1ccc(C(SCC(N)C(=O)O)(c2ccccc2)c2ccccc2)cc1 (centres undefined) | 0.075 µM | > 100 µM | 13.8 µM | > 100 µM | 0.18 µM | > 49.7 µM | 0.0748 µM | > 94.7 µM | 0.0381 µM | 0.571 µM | 0.0247 µM | 0.0663 µM | 0.0384 µM | 13 µM | 0.0385 µM | > 100 µM | 0.042 µM | > 40.1 µM | 1.03 µM | 6.03 µM
4 | Oc1cccc(/C=N/Nc2nnc(N/N=C/c3cccc(O)c3)c3ccccc23)c1 | – | 44.4 µM | – | 52 µM | – | 33 µM | – | > 100 µM | – | 35.8 µM | – | > 100 µM | – | 43.1 µM | – | 92.2 µM | – | 29.6 µM | – | 60.1 µM
5 | O=c1c(Br)cc2c(-c3ccccc3)c3cc(Br)c(O)c(Br)c3oc-2c1Br | – | > 100 µM | – | > 100 µM | – | > 100 µM | – | > 100 µM | – | > 100 µM | – | > 100 µM | – | > 100 µM | – | > 100 µM | – | > 100 µM | – | > 100 µM
6 | COc1ccc(/C=C2\CN(Cc3cn(CCNc4ccnc5cc(Cl)ccc45)nn3)C/C(=C\c3ccc(OC)c(OC)c3)C2=O)cc1OC | 3.57 µM | > 100 µM | 14.5 µM | 31 µM | 3.9 µM | 26.2 µM | 4.66 µM | 24.1 µM | 2.56 µM | 7.68 µM | 3.35 µM | 12.5 µM | 1.95 µM | 3.85 µM | 3 µM | 39 µM | 3.2 µM | 27.7 µM | > 100 µM | > 100 µM
7 | Cc1cc(C(=O)NC(CCC(=O)O)C(=O)O)sc1CCC1CNc2nc(N)[nH]c(=O)c2C1 (centres undefined) | < 0.01 µM | > 100 µM | 0.0319 µM and 0.0592 µM | > 100 µM | 0.0533 µM and 0.0806 µM | > 100 µM | 0.0103 µM and 0.0181 µM | > 100 µM | 6.72 µM and 12.8 µM | > 100 µM | < 0.0192 µM and 0.0501 µM | > 100 µM | < 0.0198 µM and 0.0357 µM | > 100 µM | 0.15 µM and 0.229 µM | > 100 µM | 0.0368 µM and 0.0439 µM | > 100 µM | 0.0499 µM and 0.0758 µM | > 100 µM
8 | CN(C)CC(C(=O)Cc1ccccc1)c1ccccc1 (centres undefined) | 7.53 µM | 22.4 µM | 1.69 µM | 3.32 µM | 6.87 µM | 21 µM | 18.4 µM | 36.2 µM | 3.48 µM | 11 µM | 2.34 µM | 4.97 µM | 1.72 µM | 3.3 µM | 0.444 µM | 3.17 µM | 2.23 µM | 5.02 µM | 4.4 µM | 23.9 µM
9 | CN1CCN(Cc2ccc(NC(=O)c3cncc(C#Cc4cncc5nccnc45)c3)cc2C(F)(F)F)CC1 | 4.73 µM | 32.2 µM | 2.16 µM | > 50 µM | 2.68 µM | 9.8 µM | 2.75 µM | 13 µM | 0.869 µM | 4.59 µM | 0.83 µM | 4.33 µM | 1.39 µM | 7.35 µM | 1.86 µM | 10.6 µM | 5.67 µM | 13 µM | 6.68 µM | 25.1 µM
10 | C[C@]12CC[C@H]3[C@@H](C[C@@H]4SC(Nc5ccccc5)=N[C@@]45CC(O)CC[C@]35C)[C@@H]1CCC2O (some centres undefined) | 2.37 µM | 5.85 µM | 1.67 µM | 3.05 µM | 2.47 µM | 6.54 µM | 5.16 µM | 17.9 µM | 1.99 µM | 4.63 µM | 1.84 µM | 4.27 µM | 1.51 µM | 3.01 µM | 0.465 µM | 2.47 µM | 1.36 µM | 2.79 µM | 3.39 µM | 91.7 µM
11 | COc1cc(C2C3=C(COC3=O)Nc3c2ccc2c3CCCC2)cc2c1OCO2 (centres undefined) | 0.0387 µM | > 100 µM | 0.337 µM | > 100 µM | 0.0426 µM | 18.7 µM | 0.0311 µM | 0.103 µM | 0.0779 µM | – | 0.033 µM | 67.4 µM | 0.039 µM | 3.29 µM | 0.0479 µM | 75.3 µM | 0.0418 µM | 14.9 µM | 0.0391 µM | 19.1 µM
12 | CC(/C=C/c1ccccc1)=N\NC(N)=S | – | > 100 µM | – | > 100 µM | – | > 100 µM | – | > 100 µM | – | > 100 µM | – | 88.4 µM | – | > 100 µM | – | 93.5 µM | – | > 100 µM | – | 84 µM
13 | COc1cc2ncnc(Nc3ccc4c(cnn4Cc4ccccc4)c3)c2cc1OC | > 18.2 µM | > 25 µM | 3.96 µM | > 25 µM | > 25 µM | > 25 µM | 0.534 µM | > 25 µM | 7.13 µM | > 25 µM | > 25 µM | > 25 µM | > 21.3 µM | > 25 µM | 11.2 µM | > 25 µM | > 19.2 µM | > 25 µM | > 19.5 µM | > 25 µM
14 | NCCOc1ccccc1/C=C1\c2ccccc2-c2ccc([N+](=O)[O-])cc21 | 1.52 µM | 2.96 µM | 1.3 µM | 2.61 µM | 1.53 µM | 3.18 µM | 1.7 µM | 3.13 µM | 1.58 µM | 2.99 µM | 1.65 µM | 3.02 µM | 1.25 µM | 2.51 µM | 1.79 µM | 3.63 µM | 1.38 µM | 2.74 µM | 1.77 µM | 3.54 µM
15 | CCCCN(CCCC)CCC(O)c1cc2c(Cl)cc(Cl)cc2c2cc(C(F)(F)F)ccc12 (centres undefined) | – | 22.2 µM | – | 17.4 µM | – | 21.9 µM | – | 26.9 µM | – | 15.3 µM | – | 23.6 µM | – | 25.2 µM | – | 28.4 µM | – | 31.7 µM | – | 26.1 µM
16 | C/C=C/[C@H]1O[C@@H]2C(=C[C@H]1O)C(=O)O[C@H]2C | 14.8 µM | 30.8 µM | 7.51 µM | > 54.4 µM | 23.4 µM | 48.4 µM | > 50.2 µM | > 66.7 µM | 17.3 µM | 34.2 µM | 14.7 µM | 30.6 µM | 4.19 µM | 16.7 µM | 2.74 µM | 8.85 µM | 18.4 µM | 36.8 µM | 26 µM | > 57 µM
